Earlier results in US20040214861A1, “Compositions of a cyclooxygenase-2 selective inhibitors and 5-HT1B1D antagonists for the treatment and prevention of migraine” (Pharmacia Corporation, priority 2003, published 2004).

Conditions: at one and two hours after administration; compared with sumatriptan

Q: Which effectiveness after administration does the source give for `CN1CCC[C@@H]1Cc1c[nH]c2ccc(CCS(=O)(=O)c3ccccc3)cc12` [eletriptan] here?
A: greater effectiveness at one and two hours after administration than sumatriptan
